What all share (type): cell-based
One test has as its system interleukin-6. In words: Protection of UVA/UVB-irradiated keratinocytes measured by interleukin-6 production. The method, then: (§1) The inflammation of the cells and the measurement of the antiaging effect are based on the irradiation of a cell culture with a combination of UVA and UVB. […] Pure niacinamide at a concentration of 0.4 mg/mL or 1.2 mg/mL is used. For the treatments inducing illumination at 660 nm, 10 different programs are evaluated. These programs are defined in Table 1 below. [table] […] Free radicals are reactive and induce an inflammatory cascade characterized by the production of proinflammatory proteins (p53, pro-opiomelanocortin (POMC), interleukins, etc.) which can be measured in the cell supernatant. […] According to the protocol, at T+48 h, the cell supernatant is collected and the concentrations of interleukins 6 and 8 are measured and compared to the concentrations of interleukins 6 and 8 produced by cells exposed to UV and not subjected to any of the three abovementioned treatments (UV control) and to untreated and non-irradiated cells (non-irradiated control). A degree of protection of the treated cells relative to the UV control is evaluated according to the following formula: Non-irradiated cells show 100% protection and irradiated cells show 0% protection. […]

A further test concerns interleukin-8. The experiment in a line: Protection of UVA/UVB-irradiated keratinocytes measured by interleukin-8 production. The method, then:
as §1

Another test deals with procollagen-1. In words: Procollagen-1 production by fibroblasts exposed to UVA and UVB. To be noted: niacinamide 0.4 mg/ml combined with illumination at 660 nm, programs 3 and 8; compared with niacinamide alone and with illumination alone; FIG. 3. The method, then: The inflammation of the cells and the measurement of the antiaging effect are based on the irradiation of a cell culture with a combination of UVA and UVB. […] Pure niacinamide at a concentration of 0.4 mg/mL or 1.2 mg/mL is used. Attention is now focused on skin aging, known as “photoaging”, induced by UV exposure. One of the parameters of cutaneous aging observed clinically is the appearance of wrinkles associated in part with a decrease in collagen production by the cells of the dermis, the fibroblasts. […] The production of procollagen-1 produced by fibroblasts is measured in the supernatants obtained from the previously defined protocol in which the cells were illuminated either without any other treatment or in combination with niacinamide at a concentration of 0.4 mg/ml, and compared with treatment with niacinamide alone at a concentration of 0.4 mg/ml. The results are shown in FIG. 3 for illumination programs 3 and 8.

The mark [1] stands for this setting: niacinamide 1.2 mg/ml combined with illumination at 660 nm, all illumination programs.

Consider `NC(=O)c1cccnc1` [niacinamide], for which the “protection of the skin cells (interleukin-6) compared with illumination alone at 660 nm” value with interleukin-6 (setting [1]) is listed as “much greater protection”. Also, the “protection of cells exposed to UV (interleukin-6 concentration)” value with interleukin-6 (niacinamide 1.2 mg/ml combined with pulsed illumination at 660 nm, all 10 programs, relative to UV-exposed cells and/or niacinamide alone, FIG. 1) is listed as “beneficial effect”. In the test with interleukin-8 (setting [1]), the “protection of the skin cells (interleukin-8) compared with illumination alone at 660 nm” value is recorded as “much greater protection”. For the same compound, in the test with interleukin-8 (niacinamide 1.2 mg/ml combined with pulsed illumination at 660 nm, all 10 programs, relative to UV-exposed cells and/or niacinamide alone, effects particularly visible, FIG. 2), the “protection of cells exposed to UV (interleukin-8 concentration)” value is “beneficial effect”. Further, the “production of procollagen-1” value in the test with procollagen-1 was “Increased production”.

These data come from patent US20230233439A1, “METHOD FOR COSMETIC TREATMENT BY COMBINED ILLUMINATION AND APPLICATION OF A COMPOSITION COMPRISING NIACINAMIDE, AND ASSOCIATED DEVICE” (LIGHTINDERM, priority 2020, published 2023).
